For one molecule, IC50 results are on record in PMC11285368, “Chasing Red Herrings: Palladium Metal Salt Impurities Feigning KRAS Activity in Biochemical Assays” (Journal of Medicinal Chemistry, 2024).

For test [1], the target named is T1, KRAS^G12D(GTP)::CRAF (Homo sapiens, UniProt P01116, G12D).
T1 construct: KRAS^G12D 1–169, N-terminal 6His-tag, C-terminal avi-tag (Xtal BioStructures, Inc.); 6His (N); purchased Xtal BioStructures, Inc. (KRAS); Viva Biotech Ltd. (CRAF)
Briefly: KRAS^G12D(GTP)::CRAF AlphaScreen. The class given is biochemical. The method, then: The proteins have been used at these given final assay concentrations:
Test compounds dissolved in DMSO were dispensed onto assay plates (Proxiplate 384 PLUS, white, PerkinElmer; 6008289) using an Access Labcyte Workstation with the Labcyte Echo 555. For the chosen highest assay concentration of 100 μM, 150 nl of compound solution were transferred from a 10 mM DMSO compound stock solution. A series of 11 5-fold dilutions per compound was transferred to the assay plate, and compound dilutions were tested in duplicates. DMSO was added as backfill to a total volume of 150 nl. The assay was run on a fully automated robotic system in a darkened room below 100 Lux. […] After 60 min incubation time 5 μL of AlphaScreen bead mix in assay buffer were added into columns 1–23. Bead mix consisted of AlphaLISA Glutathione Acceptor Beads (PerkinElmer, cat. no. AL109) and Alpha-Screen Streptavidin Donor Beads (perkinElmer cat. no. 6760002) in assay buffer at a final assay concentration of 10 μg/mL each. Plates were kept at room temperature in a darkened incubator. After an additional 60 min incubation time the signal was measured on a PerkinElmer Envision HTS Multilabel Reader using the AlphaScreen specs from PerkinElmer.
(§1) IC50 values were calculated and analyzed with Boehringer Ingelheim’s MEGALAB IC50 application using a 4 parametric logistic model.
Background: In Alpha technology, singlet oxygen from a donor bead excites a nearby acceptor bead.

For test [2], the target named is T1, KRAS^G12D(GTP)::CRAF. Put plainly: KRAS^G12D(GTP)::CRAF TR-FRET. The class given is biochemical. The conditions noted are these: Fluorescence; GST-CRAF^(51–131) and KRAS^G12D(1–169)-biotin. The protocol: Plates were kept at room temperature in a darkened incubator.
as §1
Background: In TR-FRET formats the signal depends on donor and acceptor labels being close together.

T1 sequence (P01116 1-169 isoform P01116-2 G12D): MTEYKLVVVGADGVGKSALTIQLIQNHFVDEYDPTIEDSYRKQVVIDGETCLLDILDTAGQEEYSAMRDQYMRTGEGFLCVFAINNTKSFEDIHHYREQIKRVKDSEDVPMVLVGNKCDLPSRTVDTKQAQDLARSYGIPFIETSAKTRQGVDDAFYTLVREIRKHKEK

Take `[Cl][Pd][Cl]` [PdCl2, Palladium(II) chloride]: the IC50 was 700 ± 200 nM at KRAS^G12D(GTP)::CRAF [1] (Batch 1, read-out: KRAS^G12D(GTP)::CRAF AlphaScreen IC50); 700 ± 200 nM at KRAS^G12D(GTP)::CRAF [1] (Luminescence, GST-CRAF^(1–303) and KRAS^G12D(1–169)-biotin, read-out: IC50, KRAS^G12D(GTP)::CRAF AlphaScreen); 40500 ± 19200 nM at KRAS^G12D(GTP)::CRAF [2].

By IC50 is commonly meant the point on the concentration scale where inhibition reaches its midpoint.
